From publication PMC2970562, “High-Affinity Inhibitors of Human NAD^+-Dependent 15-Hydroxyprostaglandin Dehydrogenase: Mechanisms of Inhibition and Structure-Activity Relationships” (PLoS ONE, 2010)

How the values were obtained:
human 15-PGDH [1] = molecular target: T1, human 15-PGDH (Homo sapiens, UniProt P15428); assay: qHTS and 24-point re-test: fluorescence assay of NAD+ reduction to NADH on PGE2 oxidation (PubChem AID 894); assay type: biochemical; settings: potency in 24-point titrations on re-test; 20 nM 15-PGDH, 1 mM NAD+, 30 µM PGE2, pH 8.0; read-out: qHTS IC50
T1 construct: comprising residues 3–256 of the human HPGD gene (GenBank identifier: 1203982); His6 (GHHHHHH, behind the TEV site) (C, cleaved yes); made in house; host or cells: E. coli BL21(DE3)-R3
T1 sequence (P15428 3-256): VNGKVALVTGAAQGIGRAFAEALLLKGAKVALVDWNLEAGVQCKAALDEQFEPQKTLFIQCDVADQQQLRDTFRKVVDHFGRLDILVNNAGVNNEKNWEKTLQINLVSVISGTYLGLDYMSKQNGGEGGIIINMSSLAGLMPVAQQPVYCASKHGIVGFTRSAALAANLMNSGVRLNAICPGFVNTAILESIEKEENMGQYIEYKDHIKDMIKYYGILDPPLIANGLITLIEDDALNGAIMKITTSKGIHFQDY
Description: The assay was miniaturized to a 4-µL volume in 1536-well format: enzyme (3 µL) was dispensed first, followed by a pintool transfer of library compounds dissolved in DMSO. After equilibration, a substrate dispense (1 µL) initiated the enzymatic reaction (see Materials and Methods, for detailed protocol description). […] Hits associated with low-efficacy (<40% maximum inhibition), incomplete curves, as well as those displaying only a single-point inhibition at the top concentration tested were eliminated from further consideration. Similarly, the collection of real-time kinetic data allowed the autofluorescence of each compound to be evaluated by comparing the initial fluorescence read at top concentration with the mean value of uninhibited assay controls: compounds whose top-concentration initial well fluorescence exceeded six standard deviations over the mean were flagged as potential autofluorescent artifacts, [28] (see example in supplementary information Figure S1E). The complete screening and followup results are available in PubChem (PubChem Assay ID 894).
The enzymatic reaction was performed in 50 mM Tris-HCl pH 8.0, containing 0.01% Tween 20. […] The high-throughput screen was performed on a fully integrated robotic system (Kalypsys Inc, San Diego, CA) as described elsewhere. Library compounds, arrayed as seven-point inter-plate concentration series, were screened from the lowest (3.5 nM) to the highest (57.5 µM) concentration, with plates containing DMSO only, serving to note any systematic drifts in the signal, interspersed evenly throughout the screen (approximately every 50 plates). Briefly, 3 µL of reagents were dispensed into 1536-well Greiner black solid-bottom assay plates using integrated nanoliter solenoid-technology dispensers. Compounds and controls (23 nL) were transferred via Kalypsys pintool equipped with 1,536-pin array (10-nL slotted pins; V&P Scientific, Palo Alto, CA). After a 15-minute incubation (to allow for interaction between compound and enzyme), a 1-µL substrate addition step initiated the reaction. Kinetic data were collected on a ViewLux High-throughput CCD imager (Perkin-Elmer) equipped with standard UV fluorescence optics (exc. 340 nm, em. 450 nm).
Starting fluorescence intensity and the change in fluorescence over the two-minute initial rate period were recorded for every well. Screening data were normalized against no-enzyme (64 wells, columns 3 and 4) and no-compound (32 wells located in column 1) controls, and concentration-response relationships were derived as described previously. A four-parameter Hill equation [47] was fitted to the concentration-response data using publicly available algorithms (http://www.ncgc.nih.gov/pub/openhts/curvefit/).

human 15-PGDH [2] = molecular target: T1, human 15-PGDH; assay: Differential scanning fluorimetry (DSF), thermal stabilization; assay type: binding; settings: 1 µM protein, compound 50 or 250 µM, N/A = no unfolding transition observed in DSF; for ∆Tm [°C] NAD+: with 200 µM NAD+; for ∆Tm [°C] NADH: with 200 µM NADH; for ∆Tm [°C] apo: without cofactor
Description: A correlation between the ΔTm and the inhibitory potency has been shown in a number of protein-ligand systems, particularly for kinases [32]–[34].
Studies to assess the thermal stability of human 15-PGDH in presence of compounds were performed as described previously, with variations. Briefly, the protein was diluted to a final assay concentration of 1 µM in 100 mM Tris buffer pH 8.0, containing 0.01% Tween-20 and 1∶1000 SYPRO orange dye (Invitrogen). […] Compounds were added at a ratio of 1∶5 from appropriate stock solutions in 10% (v/v) DMSO to comprise either 50 or 250 µM final concentrations. Heat denaturation curves were recorded using a RT-PCR instrument (Mx3005p, Agilent) applying a temperature gradient of 2°C/min. […] 2.5 (ftp://ftp.sgc.ox.ac.uk/pub/biophysics) and PRISM 5.0 (GraphPad Software, Inc.).

[3] = tested on: recombinant human placental 15-PGDH; settings: in words ref 22; cited from earlier work

IC50 (human 15-PGDH [1]) | ∆Tm [°C] NADH (human 15-PGDH [2]) | SMILES | ∆Tm [°C] NAD+ (human 15-PGDH [2]) | ∆Tm [°C] apo (human 15-PGDH [2]) | potency as inhibitor of 15-PGDH [3]
251 nM | 7.8 °C | C=CCOC12Oc3ccc(Oc4ccc(OC)c(C=O)c4)cc3C3C(CCCCO)C(CCCCO)C=C(C(=NOCC)CC1N(CCC)C(=O)OCCOCc1ccccc1)C32 (stereo not drawn) [Compound 14] | 3.2 °C | -1.0 °C | –
631 nM | -0.2 °C | COc1ccc(CNC(=O)CCn2c(-c3cccc(C)c3)n[nH]c2=S)cc1 [Compound 65] | – | – | –
355 nM | -0.7 °C | C=CCn1c(=NC(=O)c2cc(C)n(C)n2)sc2cc(Cl)ccc21 [Compound 66] | – | – | –
– | – | O=C(O)c1cccnc1Nc1cccc(C(F)(F)F)c1 [niflumic acid] | – | – | micromolar potencies
708 nM | 4.4 °C | C[C@H]1CCCCN1C(=O)CSc1nnc(-c2ccccc2F)o1 [Compound 17] | 3.3 °C | 0.1 °C | –

SMILES | IC50 (human 15-PGDH [1]) | ∆Tm [°C] NADH (human 15-PGDH [2]) | ∆Tm [°C] NAD+ (human 15-PGDH [2]) | ∆Tm [°C] apo (human 15-PGDH [2]) | potency as inhibitor of 15-PGDH [3]
CCCC(CCCCCCC(=O)c1cn(CCCC(=O)OCC)c2ccccc12)c1ccc(CC(C)C)cc1 (stereo not drawn) [Compound 34] | 794 nM | 6.4 °C | 2.0 °C | 0.1 °C | –
CNC(C)C(O)c1ccccc1.O=S(=O)(O)O (stereo not drawn) [Compound 84] | 1410 nM | -0.1 °C | 1.5 °C | 0.7 ± 0.1 °C | –
